# Test: Partition coefficient between octanol and water by UV/visible absorption
# Format: physicochemical
# Conditions: partition coefficient n-octanol/water, 25°C; read-out: P
# Experimental: As used herein, it provides a measure of the hydrophobicity of the biocide.
# A variety of commercial and hydrophobically-modified biocides have been studied. Partition coefficients between octanol and water have been determined at 25°C by UV/visible absorption. First, the calibration curve of each biocide was determined as optical density (ODabs) versus concentration of biocide in µg/g (ppm) of water for the predominantly water-soluble materials and µg/g of octanol for the predominantly oil-soluble biocides.
# A known amount of biocide was placed in a glass vessel containing either 10ml of water or 10ml of octanol depending on the solubility of the biocide. An equal volume of the other solvent was added and the glass vessel sealed. The vessel was shaken vigorously for a few minutes and then every few hours for more than 48 hours. Each mixture was placed in a sealed separating funnel and left for a further 24 hours. The water phase of each mixture was removed and the UV/visible spectra run against water with appropriate dilutions to bring absorbance between 0 and 1.5 for the commercial biocides and the octanol fractions were examined for the hydrophobically modified biocides.
row,Compound,logP
1,CCCCCCCCn1sc2ccccc2c1=O [Compound 1],> 2.52
2,CCCCCCCCCCCCCCCCn1sc2ccccc2c1=O [Compound 2],> 2.11
3,CCCCCCCCn1sc(Cl)cc1=O [Compound 3],> 2.75
4,CCCCCCCCCCCCCCCCCCn1sc(Cl)cc1=O [Compound 4],> 2.68
5,CCCCCCCCCCCC[N+](C)(C)CCOc1ccccc1 [Domiphen™],~1.7
6,Cn1sc2c(c1=O)CCC2 [Promexal™],~0.653
